Experimental findings from ChEMBL document CHEMBL2073879, “Human monocarboxylate transporter 2 (MCT2) is a high affinity pyruvate transporter” (J Biol Chem, 1998) are described below.

The target in assay [1] is T1, Monocarboxylate transporter 2 (Homo sapiens) (UniProt O60669).
T1 sequence (whole entry): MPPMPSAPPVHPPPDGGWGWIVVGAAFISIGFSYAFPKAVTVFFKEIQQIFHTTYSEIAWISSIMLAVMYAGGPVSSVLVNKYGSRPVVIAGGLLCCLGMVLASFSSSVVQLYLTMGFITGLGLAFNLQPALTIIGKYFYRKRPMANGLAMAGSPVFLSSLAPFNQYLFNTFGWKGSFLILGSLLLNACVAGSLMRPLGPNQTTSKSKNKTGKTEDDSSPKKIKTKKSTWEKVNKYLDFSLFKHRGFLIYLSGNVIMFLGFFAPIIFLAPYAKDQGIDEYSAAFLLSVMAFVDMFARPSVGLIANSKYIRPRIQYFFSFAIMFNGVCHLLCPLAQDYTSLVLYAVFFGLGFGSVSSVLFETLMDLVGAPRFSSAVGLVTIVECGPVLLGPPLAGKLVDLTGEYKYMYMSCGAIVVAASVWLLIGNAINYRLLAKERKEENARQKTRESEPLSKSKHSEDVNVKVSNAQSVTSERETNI
As to the kind of experiment: (§1) TP_TRANSPORTER: inhibition of pyruvate uptake in Xenopus laevis oocytes. The format is functional, cell-based. The arrangement: concentration or dose not given beside the values. The settings on record: Oocyte.

In assay [2] the target is T2, Monocarboxylate transporter 1 (Rattus norvegicus) (UniProt P53987).
T2 sequence (whole entry): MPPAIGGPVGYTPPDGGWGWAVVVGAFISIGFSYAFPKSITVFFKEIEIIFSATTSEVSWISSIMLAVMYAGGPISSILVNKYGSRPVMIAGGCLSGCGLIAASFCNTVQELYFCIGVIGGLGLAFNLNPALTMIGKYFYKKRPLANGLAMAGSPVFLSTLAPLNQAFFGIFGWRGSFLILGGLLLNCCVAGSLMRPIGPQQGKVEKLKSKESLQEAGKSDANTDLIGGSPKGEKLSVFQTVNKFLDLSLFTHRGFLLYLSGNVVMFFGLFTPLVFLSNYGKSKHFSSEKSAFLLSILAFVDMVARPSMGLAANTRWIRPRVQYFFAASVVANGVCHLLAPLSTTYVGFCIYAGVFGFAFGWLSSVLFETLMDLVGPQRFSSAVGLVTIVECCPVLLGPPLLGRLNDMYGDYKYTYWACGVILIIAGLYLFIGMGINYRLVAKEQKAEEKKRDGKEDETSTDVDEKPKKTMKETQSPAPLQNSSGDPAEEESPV
Described as §1. The conditions noted are these: Oocyte. The arrangement: concentration or dose not given beside the values. It counts as functional, cell-based.

`CC(O)C(=O)[O-].[Na+]` (stereo unspecified): the Activity in assay [1] and in assay [2] was 0% throughout.

Consider `CC(O)CC(=O)O` (racemic), for which the Activity is 30% in assay [1] and 20% in assay [2].

In the case of `O=CC[C@@H](O)[C@H](O)[C@H](O)CO`, the Activity result in assay [1] and in assay [2] was “is not an inhibitor [-]” throughout.

Turning to `O=C(O)/C=C/c1cccc(O)c1`, the Activity was 30% in assay [1] and 20% in assay [2].

As to `C[C@@H](O)C(=O)O`, the Activity in assay [1] is 10%; in assay [2], 30%.

Consider `CCC(O)C(=O)O` (racemic), for which the Activity is 10% in assay [1] and 40% in assay [2].

On to `O=C(O)CCCO`, for which the results for the Activity in assay [1] and in assay [2] were 10% and 40%, respectively.

In the case of `CCOC(=O)/C=C/c1ccc(O)cc1`, the values for the Activity in assay [1] and in assay [2] were 65% and 0%, respectively.
